Measurements taken from patent US20080226685A1, “Product and Method for Controlling Flying Insects” (Reckitt Benckiser (Australia) Pty Limited, priority 2003, published 2008).
Like-named read-outs stand apart in the source and are kept apart here.

Legend:
[1] = test system: Aedes aegypti mosquitoes; test: Knockdown studies in a 40 m^3 test chamber with paper dosed with metofluthrin; type: in vivo
Protocol: The inventors have carried out a number of knockdown studies for the control of mosquitoes using paper surfaces impregnated and/or dosed with the vapour active insecticide metofluthrin. The active was applied to each paper surface as a solution in acetone/ethanol (1:1).
Tests were carried out in a 40 m^3 test chamber. The temperature was approximately 28° C. Mixed sex Aedes aegypti mosquitoes were used, aged for 7-10 days after emergence. Up to 200 mosquitoes were introduced into the chamber for each test. Three replicates were done for each treatment. Knocked down mosquitoes were collected at the end of each assessment period and counted.
Knockdown studies against the Dengue mosquito Aedes aegypti using three surface areas a) A2, b) A3 and c) A4 of 18 gsm paper in the above test chamber were carried out. Each paper was treated with 150 mg of metofluthrin. A mosquito coil containing 0.04% Prallethrin was included as a reference control.
A knockdown study against the Dengue mosquito Aedes aegypti using aged paper was conducted. The test involved treating 18 gsm paper of A4 surface area with 2 mg of metofluthrin at 28° C. for up to 12 hours. The treated paper was hung in the centre of the above chamber. A mosquito coil containing 0.04% prallethrin was included in the trial as a reference control.

[2] = Emanation rate from 50 gsm A4 paper dosed with different amounts (Example 6); type: physicochemical; conditions: A4 50 gsm paper, dry dosing in acetone/ethanol (1:1), 25 mg to approximately 5 mg, 28° C., low air flow
Protocol: A study involving dosing 50 gsm paper with different amounts of metofluthrin was made to investigate the affect on the emanation rate from this substrate. Three samples of white (A4) paper (50 gsm) each having a surface area of 1250 cm^2 were dosed with metofluthrin (25, 20 and 14 mg) dissolved in acetone/ethanol (1:1) using the dry dosing technique. The papers were aged in a chamber at 28° C. with low air flow for up to a maximum of 214 hours. The amount of metofluthrin remaining on the paper substrate was measured from time 0 hours to 214 hours. The plot obtained for the emanation rate of metofluthrin from the 25 mg dosed samples was used to estimate the time it would take for 20 and 14 mg of metofluthrin to remain on the samples.

[3] = Emanation rate from 18 gsm paper honeycomb, wet dosed in Norpar 12 (Example 7); type: physicochemical; conditions: 30 mg on 18 gsm honeycomb, estimated surface area 2199 cm^2, wet dosed in Norpar 12, 28° C., low airflow
Protocol: A study involving dosing 18 gsm paper configured into a honeycomb format with an estimated surface area of 2199 cm^2 with metofluthrin (30 mg) was made to determine the emanation rate from this substrate.
The metofluthrin was dissolved in Norpar 12 and dosed on to the substrate using the wet dosing technique. The papers were hung and aged in a chamber at 28° C. with low airflow for up to a maximum of 80 hours. The amount of metofluthrin remaining on the paper substrate was measured from time 0 hours to 80 hours. The plot obtained for the amount of metofluthrin remaining on samples as a function of time was used to calculate the release rate from this format.

[4] = Emanation rate from 30 gsm paper dosed with different solvents (Example 8); type: physicochemical; conditions: 14 mg on A4 30 gsm paper, 28° C.
Protocol: A study of the metofluthrin emanation rate from 30 gsm paper dosed with different solvents was made.
White (A4) paper (30 gsm) having a surface area of […] was dosed with metofluthrin (14 mg) prepared in a range of solvents, as listed below. The papers were aged in a chamber at 28° C. with low air flow for up to a maximum of 168 hours. The amount of metofluthrin remaining on the paper substrate was measured from time 0 hours to 168 hours. The following solvents were used:
The inventors have concluded that linear release kinetics are observed for metofluthrin emanating from paper substrates and accordingly, the line of best fit was fitted to obtain the linear equation to enable the rate of emanation to be determined.

[5] = Emanation rate from 18 gsm paper dosed with different solvents (Example 9); type: physicochemical; conditions: 14 mg on A4 18 gsm tissue paper, 28° C.
Protocol: A study of the metofluthrin emanation rate from 18 gsm paper dosed with different solvents was made.
Tissue paper (18 gsm) having an effective surface area of 1250 cm^2 (A4) was dosed with metofluthrin (14 mg) prepared in a range of solvents. The papers were then aged in a chamber at 28° C. with low airflow for up to a maximum of 168 hours. The amount of metofluthrin remaining on the paper substrate was measured from time 0 hours to 168 hours. The following solvents were used:
The inventors have concluded that linear release kinetics are observed for metofluthrin emanating from paper substrates and accordingly, the line of best fit was fitted to obtain the linear equation to enable the rate of emanation to be determined: […]

[6] = Stability and packaging suitability, storage at 55° C. (Example 10); type: physicochemical
Protocol: The stability and packaging suitability of various materials was studied. In these studies, metofluthrin (14 mg) was applied to A4 sized 30 gsm paper substrates via wet and dry application at ambient temperature. The samples were placed in pouches prepared from the packaging materials under investigation, sealed tightly and stored at 55° C. After periods of one and two weeks, samples were removed from storage and the dosed paper substrates were measured for metofluthrin content. The packaging materials studied were glass, PVC, amorphous PET (APET), crystalline PET (CPET), aluminium foil, heat sealable polyester films, acrylonitrile methyl acrylate copolymer and PEPET. For the wet dosing of metofluthrin on the paper substrate, the metofluthrin was dissolved in Exxsol D80 or Norpar 12 and the resulting solution applied to the substrate. For dry application, the metofluthrin was dissolved in acetone/ethanol (1:1 by volume) and applied to the substrate. The solvent was then allowed to evaporate over a period of 5-10 minutes.

[7] = cited from earlier work

In the case of `CC=CC1C(C(=O)OCc2c(F)c(F)c(COC)c(F)c2F)C1(C)C` (racemic) [metofluthrin, 2,3,5,6-tetrafluoro-4-(methoxymethyl)benzyl-(EZ)-(1RS,3RS;1RS,3SR)-2,2-dimethyl-3-(prop-1-enyl)cyclopropanecarboxylate], the knockdown ([1]; 2 mg on A4 18 gsm paper aged at 28° C., for up to 4 hours, 40 m^3 chamber) is reported as “greater than 40%”, the “effectiveness relative to control (mosquito coil 0.04% prallethrin)” value ([1]; 2 mg on A4 18 gsm paper, at 4 hours of aging at 28° C.) is reported as “twice as effective as the control” and the “knockdown effectiveness compared with reference control” value ([1]; A2, A3 and A4 18 gsm paper each treated with 150 mg, 40 m^3 chamber, approx. 28° C., control = mosquito coil containing 0.04% Prallethrin) is reported as “more effective than the control”. The “emanation rate when varying initial amount dosed” value [2] was “constant”, the emanation rate [3] was 0.22 mg/h and the “Release Rate Index” value ([4]; solvent Acetone/ethanol (1:1), dry dosing (reference = 1)) was 1.00. The “Release Rate Index” value ([4]; solvent Exxsol D40, wet dosing, relative to acetone/ethanol) was 1.40, the “Release Rate Index” value ([4]; solvent Exxsol D80, wet dosing, relative to acetone/ethanol) was 1.41 and the “Release Rate Index” value ([4]; solvent Exxsol D140, wet dosing, relative to acetone/ethanol) was 0.25. For the same molecule, the “Release Rate Index” value ([4]; solvent HoTung C11-14, wet dosing, relative to acetone/ethanol) was 1.37, the “Release Rate Index” value ([4]; solvent Isopar G, wet dosing, relative to acetone/ethanol) was 1.58 and the “Release Rate Index” value ([5]; solvent Dowanol DPM, wet dosing, relative to acetone/ethanol) was 1.20. The “Release Rate Index” value ([5]; solvent Dowanol TPM, wet dosing, relative to acetone/ethanol) was 1.24, the “Release Rate Index” value ([5]; solvent Isopar L, wet dosing, relative to acetone/ethanol) was 1.75 and the “Release Rate Index” value ([5]; solvent Sasol C12-13, wet dosing, relative to acetone/ethanol) was 1.63. For the same molecule, the “Release Rate Index” value ([5]; solvent acetone/ethanol (1:1), dry dosing (reference = 1)) was 1.00, the “Release Rate Index” value ([5]; solvent n-pentane, dry dosing, relative to acetone/ethanol) was 1.50 and the “metofluthrin recovered from paper substrate (%)” value (“metofluthrin recovered … (%)” below) ([6]; packaging APET, dry dosing, acetone/ethanol (1:1), 1 week at 55° C.) was 87%. The “metofluthrin recovered … (%)” value ([6]; packaging APET, dry dosing, acetone/ethanol (1:1), 2 weeks at 55° C.) was 82%, the “metofluthrin recovered … (%)” value ([6]; packaging APET, wet dosing, Exxsol D80, 1 week at 55° C.) was 95% and the “metofluthrin recovered … (%)” value ([6]; packaging APET, wet dosing, Exxsol D80, 2 weeks at 55° C.) was 100%. The “metofluthrin recovered … (%)” value ([6]; packaging Acrylonitrile methyl acrylate copolymer, wet dosing, Norpar 12, 1 week at 55° C.) was 98%, the “metofluthrin recovered … (%)” value ([6]; packaging Acrylonitrile methyl acrylate copolymer, wet dosing, Norpar 12, 2 weeks at 55° C.) was 99% and the “metofluthrin recovered … (%)” value ([6]; packaging Aluminium foil, dry dosing, acetone/ethanol (1:1), 1 week at 55° C.) was 99%. The “metofluthrin recovered … (%)” value ([6]; packaging Aluminium foil, dry dosing, acetone/ethanol (1:1), 2 weeks at 55° C.) was 98%, the “metofluthrin recovered … (%)” value ([6]; packaging Aluminium foil, wet dosing, Exxsol D80, 1 week at 55° C.) was 99% and the “metofluthrin recovered … (%)” value ([6]; packaging Aluminium foil, wet dosing, Exxsol D80, 2 weeks at 55° C.) was 100%. For the same molecule, the “metofluthrin recovered … (%)” value ([6]; packaging CPET, dry dosing, acetone/ethanol (1:1), 1 week at 55° C.) was 98%, the “metofluthrin recovered … (%)” value ([6]; packaging CPET, dry dosing, acetone/ethanol (1:1), 2 weeks at 55° C.) was 99% and the “metofluthrin recovered … (%)” value ([6]; packaging CPET, wet dosing, Exxsol D80, 1 week at 55° C.) was 96%. The “metofluthrin recovered … (%)” value ([6]; packaging CPET, wet dosing, Exxsol D80, 2 weeks at 55° C.) was 100%, the “metofluthrin recovered … (%)” value ([6]; packaging Glass (bottle), dry dosing, acetone/ethanol (1:1), 1 week at 55° C.) was 90% and the “metofluthrin recovered … (%)” value ([6]; packaging Glass (bottle), dry dosing, acetone/ethanol (1:1), 2 weeks at 55° C.) was 81%. The “metofluthrin recovered … (%)” value ([6]; packaging Glass (bottle), wet dosing, Exxsol D80, 1 week at 55° C.) was 100%, the “metofluthrin recovered … (%)” value ([6]; packaging Glass (bottle), wet dosing, Exxsol D80, 2 weeks at 55° C.) was 98% and the “metofluthrin recovered … (%)” value ([6]; packaging PEPET, wet dosing, Norpar 12, 1 week at 55° C.) was 78%. The “metofluthrin recovered … (%)” value ([6]; packaging PEPET, wet dosing, Norpar 12, 2 weeks at 55° C.) was 77%, the “metofluthrin recovered … (%)” value ([6]; packaging PVC, dry dosing, acetone/ethanol (1:1), 1 week at 55° C.) was 64% and the “metofluthrin recovered … (%)” value ([6]; packaging PVC, dry dosing, acetone/ethanol (1:1), 2 weeks at 55° C.) was 46%. For the same molecule, the “metofluthrin recovered … (%)” value ([6]; packaging PVC, wet dosing, Exxsol D80, 1 week at 55° C.) was 73%, the “metofluthrin recovered … (%)” value ([6]; packaging PVC, wet dosing, Exxsol D80, 2 weeks at 55° C.) was 44% and the “metofluthrin recovered … (%)” value ([6]; packaging heat sealable polyester films, dry dosing, acetone/ethanol (1:1), 2 weeks at 55° C.) was 92%. For the same molecule, the “metofluthrin recovered … (%)” value ([6]; packaging heat sealable polyester films, wet dosing, Exxsol D80, 2 weeks at 55° C.) was 100%.
For `Cc1c(F)c(F)c(COC(=O)[C@@H]2[C@H](/C=C(\Cl)C(F)(F)F)C2(C)C)c(F)c1F` (racemic) [tefluthrin], the “vapour pressure (volatility at ambient temperature)” value (from here on “vapour pressure”) ([7]; 20° C.) is given as 8.4 mPa and the “vapour pressure” value ([7]; 40° C.) is given as 50 mPa.
For `C#CC(OC(=O)C1C(C=C(C)C)C1(C)C)/C(C)=C/CC` (centres unmarked) [empenthrin], the “vapour pressure” value ([7]; 23.6° C.) is given as 14 mPa.
For `CC1(C)[C@H](C=C(Cl)Cl)[C@H]1C(=O)OCc1c(F)c(F)c(F)c(F)c1F` [fenfluthrin], the “vapour pressure” value ([7]; 20° C.) is listed as 1 mPa.
